Laboratory results taken from PMC10361207, “Cannabinoid and Opioid Receptor Affinity and Modulation of Cancer-Related Signaling Pathways of Machaeriols and Machaeridiols from Machaerium Pers” (Molecules, 2023).
≈ marks a conversion by molar mass, not a printed value. Entries after “also recorded” stand apart in the source; their conditions may differ.

Legend:
CB1 receptor = biological target: T1, CB1 receptor (Homo sapiens, UniProt P21554); assay: Competitive radioligand binding assay, CB1; details: for Percent displacement, CB1: 10 μM, [3H]-CP55,940
T1 construct: expressed in transfected cells; host or cells: HEK293 (ATCC), stably transfected; membranes
T1 sequence (P21554 whole entry): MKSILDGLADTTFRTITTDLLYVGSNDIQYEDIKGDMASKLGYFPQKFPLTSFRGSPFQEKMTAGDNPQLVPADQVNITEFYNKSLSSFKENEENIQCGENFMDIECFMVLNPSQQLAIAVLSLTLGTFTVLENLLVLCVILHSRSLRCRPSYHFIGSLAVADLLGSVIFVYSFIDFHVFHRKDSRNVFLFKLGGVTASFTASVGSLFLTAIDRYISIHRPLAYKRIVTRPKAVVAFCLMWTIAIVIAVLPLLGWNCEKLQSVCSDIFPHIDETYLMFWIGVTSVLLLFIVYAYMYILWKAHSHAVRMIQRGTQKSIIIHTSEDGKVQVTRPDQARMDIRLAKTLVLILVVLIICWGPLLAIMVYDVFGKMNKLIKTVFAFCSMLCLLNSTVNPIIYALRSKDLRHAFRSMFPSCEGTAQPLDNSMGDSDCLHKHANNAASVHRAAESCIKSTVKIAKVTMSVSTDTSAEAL
Description: (§1) HEK293 cells stably transfected with δ, κ and μ opioid subtypes were a generous gift from Roth Laboratories (University of North Carolina at Chapel Hill, N.C., USA). CB and opioid cells were maintained as previously described.
(§2) Membranes were purified by first washing the cells with cold PBS and scraping the cells into cold 50 mM Tris-HCl, pH 7.4 buffer, which was centrifuged at 5200× g for 10 min at 4 °C; next, the supernatant was discarded, and the pellet was washed with more Tris-HCl buffer, homogenized via a Sonic Dismembrator (Fisher Scientific, Pittsburgh, PA, USA) and then centrifuged at 24,000× g for 40 min at 4 °C. Finally, the pellet was re-suspended in cold 50 mM Tris-HCl buffer, aliquoted into 2 mL vials and stored at −80 °C. The total membrane protein concentration was measured using a Pierce BCA Protein Assay Kit (Thermo Scientific, Rockford, IL, USA) as per the manufacturer’s protocol.
(§3) Cannabinoid and opioid competitive radioligand binding assays were performed as previously described. Saturation experiments were performed for all the receptors to determine the receptor concentration and radioligand dissociation constant (Kd) for the membrane. Percent displacements were evaluated for all the cannabinoid and opioid subtypes with a triplicate of a fixed concentration (10 µg/mL for extracts and fractions and 10 μM for purified compounds). […] Control/test compounds were dissolved in DMSO at 10 μg/mL for extracts and fractions and 10 μM for purified compounds. […] The percent displacement was calculated to represent the ability of the samples to displace the radioligand binding for a given cannabinoid or opioid receptor subtype.
(§4) The percent displacement was calculated as follows: 100−binding of compound−nonspecific binding/specific binding×100
(§5) The competitive binding assays were performed using 12 serial dilutions of each compound ranging from 0.002 to 300 μM (control compounds were serially diluted from 10 μM to 0.06 nM). The cannabinoid assays were incubated for 90 min at 37 °C with gentle agitation. The opioid assays were incubated for 60 min at room temperature. Bound radioligands were collected on GF/C (cannabinoid) or GF/B plates (opioid) and washed 10 times with ice-cold 50 mM Tris-HCl (pH 7.4)/0.1% BSA (cannabinoid) or ice-cold 50 mM Tris-HCl (pH 7.4) (opioid). Radiodetection was measured with 50 µL (cannabinoid) or 25 µL (opioid) of MicroScint^TM-20 on a TopCount NXT HTS Microplate Scintillation Counter (PerkinElmer, Waltham, MA, USA). The IC50 and Ki values were calculated via a non-linear curve fit model using GraphPad Prism 5.0 software (GraphPad Software, Inc., San Diego, CA, USA). Each compound was tested in triplicate unless stated otherwise.

CB2 receptor = biological target: T2, CB2 receptor (Homo sapiens, UniProt P34972); assay: Competitive radioligand binding assay, CB2; details: for Percent displacement, CB2: 10 μM, [3H]-CP55,940; for Ki: * tested up to solubility limit, conc. at 33.3 μM and above precipitated, read-out: CB2 Ki ± SEM
T2 construct: expressed in transfected cells; host or cells: HEK293 (ATCC), stably transfected; membranes
T2 sequence (P34972 whole entry): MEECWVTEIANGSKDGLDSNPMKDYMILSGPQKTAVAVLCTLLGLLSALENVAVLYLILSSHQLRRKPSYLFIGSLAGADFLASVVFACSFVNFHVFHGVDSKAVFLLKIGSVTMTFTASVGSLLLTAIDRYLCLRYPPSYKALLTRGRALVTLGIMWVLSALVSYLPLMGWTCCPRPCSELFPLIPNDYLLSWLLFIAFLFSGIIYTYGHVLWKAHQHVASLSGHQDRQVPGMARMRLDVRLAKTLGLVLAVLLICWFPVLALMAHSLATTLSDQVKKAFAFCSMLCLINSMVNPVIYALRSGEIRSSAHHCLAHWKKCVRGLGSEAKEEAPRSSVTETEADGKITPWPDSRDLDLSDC
Description: as §1, §2, §3, §4, §5

δ opioid receptor = biological target: T3, δ opioid receptor (Homo sapiens, UniProt P41143); assay: Competitive radioligand binding assay, δ opioid; details: for inhibition at 10 µM: [3H]-enkephalin (DPDPE), read-out: Percent displacement, Δ; for Ki: NA = not active, read-out: Δ Ki ± SEM
T3 construct: host or cells: HEK293, stably transfected; membranes
T3 sequence (P41143 whole entry): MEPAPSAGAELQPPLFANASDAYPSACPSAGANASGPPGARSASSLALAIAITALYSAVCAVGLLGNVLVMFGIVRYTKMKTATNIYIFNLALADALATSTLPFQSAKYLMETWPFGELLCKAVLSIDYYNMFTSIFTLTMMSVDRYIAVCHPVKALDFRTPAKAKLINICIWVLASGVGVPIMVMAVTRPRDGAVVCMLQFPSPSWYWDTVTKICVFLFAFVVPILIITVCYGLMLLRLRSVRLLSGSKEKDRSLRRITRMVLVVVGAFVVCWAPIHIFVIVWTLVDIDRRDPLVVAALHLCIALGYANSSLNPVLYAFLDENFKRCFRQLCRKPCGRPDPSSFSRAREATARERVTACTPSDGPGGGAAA
Description: as §1, §2, §3, §4, §5

μ opioid receptor = biological target: T4, μ opioid receptor (Homo sapiens, UniProt P35372); assay: biochemical; assay type: binding; details: for Percent displacement, µ: 10 μM, [3H]-DAMGO; for Ki: NA = not active, read-out: μ Ki ± SEM
T4 construct: host or cells: HEK293, stably transfected; membranes
T4 sequence (P35372 whole entry): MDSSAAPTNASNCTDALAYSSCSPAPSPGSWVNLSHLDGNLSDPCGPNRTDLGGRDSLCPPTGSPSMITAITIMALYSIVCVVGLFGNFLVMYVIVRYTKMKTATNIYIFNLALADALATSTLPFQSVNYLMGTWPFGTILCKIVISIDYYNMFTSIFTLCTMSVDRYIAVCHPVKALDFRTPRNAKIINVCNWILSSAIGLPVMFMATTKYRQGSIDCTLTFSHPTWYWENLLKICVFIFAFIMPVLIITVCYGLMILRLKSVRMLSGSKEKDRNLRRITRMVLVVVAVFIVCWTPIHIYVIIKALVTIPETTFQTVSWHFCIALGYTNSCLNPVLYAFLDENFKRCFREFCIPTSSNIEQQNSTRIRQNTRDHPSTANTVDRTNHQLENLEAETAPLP
Description: as §1, §2, §3, §4, §5

Stat3 = assay: Luciferase reporter assay, Stat3, HeLa; assay type: cell-based, human; details: Homo sapiens; HeLa cells; inducer IL6; dash: not inhibited by more than 40% at 50 µmol/L
Description: (§6) Hela cells (or T98G cells) from ATCC were plated in white opaque 384-well plates at a density of 4300 cells/well in 30 µL of growth medium (DMEM with 10% FBS and 1% Pen/Strep). The next day, the medium was aspirated and replaced with DMEM containing 1% FBS. The cells were transfected with respective plasmids using X-tremeGENE HP DNA transfection reagent (Roche). After 24 h of transfection, the test agents were added to the transfected cells, followed 30 min later by an inducing agent: interleukin 6 (IL-6) for Stat3, TGF-β for Smad, m-wnt3a for Wnt and PMA for AP-1, NF-κB, E2F, Myc, ETS, Notch and Hedgehog. No inducer was added for FoXO and pTK. After 4 h or 6 h of induction, the cells were lysed via the addition of the One-Glo luciferase assay system (Promega; Madison, WI). The light output was detected in a GloMax®-Multi+ Detection System with Instinct® Software (Promega E 8051). This luciferase assay determines if the test agent is able to inhibit the activation of cancer-related signaling pathways. In the case of FoxO, the enhanced luciferase activity via the test agent was assessed.

Smad2/3 = assay: Luciferase reporter assay, Smad2/3, HeLa; assay type: cell-based, human; details: Homo sapiens; HeLa cells; inducer TGF-beta; dash: not inhibited by more than 40% at 50 µmol/L
Description: as §6

AP-1 = assay: Luciferase reporter assay, AP-1, HeLa; assay type: cell-based, human; details: Homo sapiens, read-out: IC50, Ap-1 (PMA)
Description: as §6

NF-κB = assay: Luciferase reporter assay, NF-κB, HeLa; assay type: cell-based; details: Homo sapiens; HeLa cells; inducer PMA; dash: not inhibited by more than 40% at 50 µmol/L
Description: as §6

E2F = assay: Luciferase reporter assay, E2F, HeLa; assay type: cell-based, human; details: Homo sapiens, HeLa, read-out: IC50, E2F (PMA)
Description: as §6

Myc = assay: Luciferase reporter assay, Myc, HeLa; assay type: cell-based; details: Homo sapiens; HeLa cells; inducer PMA; dash: not inhibited by more than 40% at 50 µmol/L
Description: as §6

ETS = assay: Luciferase reporter assay, ETS, HeLa; assay type: cell-based, human; details: Homo sapiens; HeLa cells; inducer PMA; dash: not inhibited by more than 40% at 50 µmol/L
Description: as §6

Notch = assay: Luciferase reporter assay, Notch, HeLa; assay type: cell-based; details: Homo sapiens; HeLa cells; inducer PMA; dash: not inhibited by more than 40% at 50 µmol/L
Description: as §6

FoxO = assay: Luciferase reporter assay, FoxO, HeLa; assay type: cell-based; details: Homo sapiens; HeLa cells; no inducer; dash: no activity detected; read-out: IC50, FoxO (None)
Description: as §6

Wnt = assay: Luciferase reporter assay, Wnt, HeLa; assay type: cell-based; details: Homo sapiens; HeLa cells; inducer m-wnt3a; dash: not inhibited by more than 40% at 50 µmol/L
Description: as §6

Hedgehog = assay: Luciferase reporter assay, Hedgehog, HeLa; assay type: cell-based, human; details: Homo sapiens; HeLa cells; inducer PMA; dash: not inhibited by more than 40% at 50 µmol/L
Description: as §6

[1] = system: cannabinoid receptor 1 (CB1 receptor); details: earlier studies; cited from earlier work
[2] = Cytotoxicity, Neutral Red, SK-MEL; assay type: cell-based; details: human, SK-MEL malignant melanoma cells, Na = not active up to 50 µg/mL
Description: (§7) In vitro cytotoxic activity was determined against five human cancer cell lines—malignant melanoma (SK-MEL), epidermal carcinoma oral (KB), ductal carcinoma breast (BT-549), ovary carcinoma (SKOV-3) and cervical (HeLa) cancer cells—and two non-cancerous kidney cell lines (LLC-PK1 and Vero). All cell lines were obtained from the American Type Culture Collection (ATCC, Rockville, MD, USA). Each assay was performed in 96-well tissue culture-treated microplates. The cells were seeded at a density of 25,000 cells/well and incubated for 24 h. Samples at different concentrations were added, and the cells were incubated again for 48 h. At the end of the incubation, the cell viability was determined using Neutral Red dye according to a modification of the procedure used by Borenfreund et al.. IC50 values were determined from dose–response curves of the percent growth inhibition against test concentrations. Doxorubicin was used as a positive control, while DMSO was used as the negative (vehicle) control.

[3] = system: SK-MEL, KB, BT-549, SK-OV-3, HeLa, LLC-PK1 and Vero cells; assay: Cytotoxicity, summary over the cell line panel; assay type: cell-based; details: highest tested concentration of 50 µg/mL; most of the cells
Description: as §7

[4] = Cytotoxicity, Neutral Red, KB; assay type: cell-based; details: human, KB epidermal carcinoma (oral) cells, Na = not active up to 50 µg/mL
Description: as §7

[5] = Cytotoxicity, Neutral Red, BT-549; assay type: cell-based; details: human, BT-549 breast ductal carcinoma cells, Na = not active up to 50 µg/mL
Description: as §7

[6] = Solubility in aqueous assay buffer; details: aqueous buffer of the radioligand binding assay

Structure (SMILES) | Percent displacement, CB1 (CB1 receptor) | Percent displacement, CB2 (CB2 receptor) | inhibition at 10 µM (δ opioid receptor) | Percent displacement, µ (μ opioid receptor) | IC50 (Stat3) | IC50 (Smad2/3) | IC50 (AP-1) | IC50 (NF-κB) | IC50 (E2F) | IC50 (Myc) | IC50 (ETS) | IC50 (Notch) | IC50 (FoxO) | IC50 (Wnt) | IC50 (Hedgehog) | Affinity for CB1 (in words) [1] | IC50 at 48 h [2] | Cytotoxicity (in words) [3] | Ki (CB2 receptor) | Ki (δ opioid receptor) | other results
C[C@H]1CC[C@H]2[C@H](C1)c1c(O)cc(/C=C/c3ccccc3)cc1OC2(C)C [compound 1, machaeriol A] | 18.4% | 24.4% | 1.8% | 52.9% | 14 µM | 13.7 µM | 12 µM | 10.7 µM | 11 µM | 8.5 µM | 8.5 µM | 7 µM | > 50 µM | 11.9 µM | 8.2 µM | insignificant affinity; also recorded: did not show any affinity | – | – | – | – | –
C[C@H]1CC[C@H]2[C@H](C1)c1c(O)cc(-c3cc4ccccc4o3)cc1OC2(C)C [compound 2, machaeriol B] | – | 13.7% | 61.7% | 37.6% | 11.3 µM | 11 µM | 10 µM | 8.4 µM | 8.8 µM | 7.7 µM | 9.5 µM | 7.3 µM | > 50 µM | 9.1 µM | 6.9 µM | insignificant affinity; also recorded: did not show any affinity | > 50 mg/L | inactive | – | – | –
C[C@@H]1C[C@@H]2c3c(O)cc(-c4cc5ccccc5o4)cc3OC(C)(C)[C@H]2C[C@H]1O [compound 4, machaeriol D] | 4.5% | 81.5% | 28.2% | 16.8% | 22 µM | 11 µM | 21 µM | 20 µM | 24 µM | 18 µM | 25 µM | 25 µM | > 50 µM | 20 µM | 21 µM | – | – | – | > 1.3 µM | – | Affinity for CB1 receptor (in words) (CB1 receptor; receptor displacement assay): little or no affinity
C=C(C)[C@H]1CC[C@H](C)C[C@@H]1c1c(O)cc(/C=C/c2ccccc2)cc1O [compound 5, machaeridiol A] | 7.8% | 65.4% | 43.3% | 45.6% | 10.5 µM | 4.5 µM | 11 µM | 8.1 µM | 10 µM | 9.5 µM | 11.8 µM | > 50 µM | > 50 µM | 3.5 µM | 11 µM | – | > 50 mg/L | inactive | > 1.77 µM | 9.41 ± 1.02 µM | Ki (μ opioid receptor): 16.8 ± 3.31 µM; IC50 at 48 h [4]: > 50 mg/L; IC50 at 48 h [5]: > 50 mg/L; solubility [6]: < 33.3 µM
C=C(C)[C@H]1CC[C@H](C)C[C@@H]1c1c(O)cc(-c2cc3ccccc3o2)cc1O [compound 7, machaeridiol C] | – | 57.9% | 26.6% | 31.7% | 11.2 µM | 2.5 µM | 6.7 µM | 2 µM | 8.7 µM | 6.8 µM | 7.2 µM | 12 µM | > 50 µM | > 50 µM | 8.8 µM | – | > 50 mg/L | inactive | > 1.11 µM | 12.2 ± 1.19 µM | Δ pKi (δ opioid receptor): 4.91; Ki (μ opioid receptor): 4.01 ± 0.65 µM; IC50 at 48 h [4]: > 50 mg/L; IC50 at 48 h [5]: 47 mg/L (≈ 130 µM); solubility [6]: < 33.3 µM
